Results as given in BigSolDB 2.1.

O=[N+]([O-])/N=C1\NCCN1Cc1ccc(Cl)nc1
solubility (mole fraction)
Conditions | 293.15 K | 298.15 K | 303.15 K | 308.15 K | 313.15 K | 318.15 K | 323.15 K | 328.15 K | 333.15 K
in ethanol | 0.0006 | 0.0008 | 0.0009 | 0.0012 | 0.0015 | 0.0019 | 0.0025 | 0.003 | 0.0036
in ethyl acetate | 0.0027 | 0.0029 | 0.0034 | 0.0039 | 0.0044 | 0.0053 | 0.0061 | 0.0071 | 0.0084
in methanol | 0.0012 | 0.0015 | 0.0018 | 0.0023 | 0.0027 | 0.0036 | 0.0044 | 0.0054 | 0.0067
in methyl acetate | 0.0037 | 0.0042 | 0.0048 | 0.0057 | 0.0067 | 0.0078 | 0.0092 | 0.0107 | –
in n-butanol | 0.0004 | 0.0005 | 0.0006 | 0.0008 | 0.001 | 0.0013 | 0.0017 | 0.0021 | 0.0026
in n-butyl acetate | 0.0015 | 0.0019 | 0.0021 | 0.0027 | 0.0032 | 0.0035 | 0.0037 | 0.0041 | 0.0048
in n-propanol | 0.0005 | 0.0006 | 0.0008 | 0.0011 | 0.0013 | 0.0017 | 0.0022 | 0.0028 | 0.0034
